Assay results reported in ChEMBL document CHEMBL1821695, “Tetrazine-trans-cyclooctene ligation for the rapid construction of integrin αvβ₃ targeted PET tracer based on a cyclic RGD peptide” (Bioorg Med Chem Lett, 2011).

What was measured:
Mus musculus [1] = experiment: Biodistribution in tumor of athymic nude mouse bearing U87MG cells at 3.7 MBq, iv after 1 hr by micro PET scan method; type: ADME, organism-based, Neoplasm, U-87MG ATCC; conditions: in vivo
Mus musculus [2] = experiment: Biodistribution in tumor of athymic nude mouse bearing U87MG cells after 1 hr co-injecting with 10 mg/kg of c(RGDyK) by micro PET scan method; type: ADME, organism-based, Neoplasm, U-87MG ATCC; parameters: dose 10 mg/kg; conditions: in vivo
[3] = Chemical stability of the compound in phosphate buffer saline in presence of 5% EtOH after 6 hrs by Radio-HPLC analysis; type: physicochemical; conditions: phosphate buffered saline with 5% EtOH; read-out: Stability
Mus musculus [4] = experiment: Biodistribution in tumor of athymic nude mouse bearing U87MG cells after 2 hrs co-injecting with 10 mg/kg of c(RGDyK) by micro PET scan method; type: ADME, organism-based, Neoplasm, U-87MG ATCC; parameters: dose 10 mg/kg; conditions: in vivo
Mus musculus [5] = experiment: Biodistribution in tumor of athymic nude mouse bearing U87MG cells at 3.7 MBq, iv after 0.5 hrs by micro PET scan method; type: ADME, organism-based, Neoplasm, U-87MG ATCC; conditions: in vivo
Mus musculus [6] = experiment: Biodistribution in tumor of athymic nude mouse bearing U87MG cells after 0.5 hrs co-injecting with 10 mg/kg of c(RGDyK) by micro PET scan method; type: ADME, organism-based, Neoplasm, U-87MG ATCC; parameters: dose 10 mg/kg; conditions: in vivo
Mus musculus [7] = experiment: Biodistribution in tumor of athymic nude mouse bearing U87MG cells at 3.7 MBq, iv after 4 hrs by micro PET scan method; type: ADME, organism-based, Neoplasm, U-87MG ATCC; conditions: in vivo
Mus musculus [8] = experiment: Biodistribution in abdomen of athymic nude mouse bearing U87MG cells at 3.7 MBq, iv upto 4 hrs postinjection by micro PET scan method; type: ADME, organism-based, U-87MG ATCC; conditions: in vivo
Mus musculus [9] = experiment: Biodistribution in tumor of athymic nude mouse bearing U87MG cells after 4 hrs co-injecting with 10 mg/kg of c(RGDyK) by micro PET scan method; type: ADME, organism-based, Neoplasm, U-87MG ATCC; parameters: dose 10 mg/kg; conditions: in vivo
Mus musculus [10] = experiment: Biodistribution in tumor of athymic nude mouse bearing U87MG cells at 3.7 MBq, iv after 2 hrs by micro PET scan method; type: ADME, organism-based, Neoplasm, U-87MG ATCC; conditions: in vivo
[11] = biological target: Integrin alpha-V/beta-3 (Homo sapiens) (UniProt P05106+P06756); experiment: Displacement of [125]I-echistatin from alphaVbeta3 integrin expressed in human U87MG cells by competitive binding assay; type: cell-based; conditions: U-87MG ATCC

Row | Structure (SMILES) | Drug uptake (Mus musculus [1]) [% ID/g] | Drug uptake (Mus musculus [2]) [% ID/g] | remaining at 6 h [3] [%] | Drug uptake (Mus musculus [4]) [% ID/g] | Drug uptake (Mus musculus [5]) [% ID/g] | Drug uptake (Mus musculus [6]) [% ID/g] | Drug uptake (Mus musculus [7]) [% ID/g] | Drug uptake (Mus musculus [8]) | Drug uptake (Mus musculus [9]) [% ID/g] | Drug uptake (Mus musculus [10]) [% ID/g] | Activity [11]
1 | N=C(N)NCCC[C@H]1NC(=O)CNC(=O)[C@@H](CC(=O)O)NC(=O)[C@H](Cc2ccc(O)cc2)NC(=O)[C@@H](CCCCNC(=O)CCCC(=O)Nc2ccc(C3=NN=C(c4ccccn4)[C@@H]4CCC[C@@H](OCC[18F])CC[C@@H]34)nc2)NC1=O | 4.4 | 1 | > 95 | 0.6 | 4.6 | 1.4 | 2.7 | Active | 0.4 | 4.2 | –
2 | N=C(N)NCCC[C@H]1NC(=O)CNC(=O)[C@@H](CC(=O)O)NC(=O)[C@H](Cc2ccc(O)cc2)NC(=O)[C@@H](CCCCNC(=O)CCCC(=O)Nc2ccc(C3=NN=C(c4ccccn4)[C@@H]4CCC[C@@H](OCCF)CC[C@@H]34)nc2)NC1=O | – | – | – | – | – | – | – | – | – | – | Dose-dependent effect
3 | N=C(N)NCCC[C@H]1NC(=O)CNC(=O)[C@@H](CC(=O)O)NC(=O)[C@H](Cc2ccc(O)cc2)NC(=O)[C@@H](CCCCN)NC1=O | – | – | – | – | – | – | – | – | – | – | Dose-dependent effect
